Source: patent US8895514B2, “Composition of tumor-associated peptides and related anti-cancer vaccine for the treatment of glioblastoma (GBM) and other cancers” (Immatics Biotechnologies GmbH, priority 2008, dated 2014)
Where no end group is shown, it is not given here.

What was measured:
HLA-A*0201 = HLA-A*0201 (Homo sapiens, UniProt P04439, /I218V/L300P/L318F/N151K/N90K/P208A/P217A/Q86G/Q94H/R138H/R169H/T345S); assay: ELISA-based MHC refolding assay; assay type: binding
Experimental: The amount of de novo-folded HLA/peptide complexes was determined by a quantitative ELISA. Dissociation constants (KD values) were calculated using a standard curve recorded from dilutions of a calibrant HLA/peptide complex.

CD8+ T cells [1] = assay: In vitro priming of CD8+ T cells with pMHC/anti-CD28 coated beads, tetramer readout; assay type: cell-based, human; settings: for Positive donors/donors tested / Positive wells/wells tested: healthy donors, CD8+ cells stimulated with high density beads
Experimental: To perform in vitro stimulations by artificial antigen presenting cells (aAPC) loaded with peptide-MHC complex (pMHC) and anti-CD28 antibody, first we isolated PBMCs (peripheral blood mononuclear cells) from fresh HLA-A*02+ buffy coats by using standard density gradient separation medium (PAA, Cölbe, Germany). Buffy coats were either obtained from the Blood Bank Tübingen or from the Katharinenhospital Stuttgart. Isolated PBMCs were incubated overnight in T-cell medium (TCM) for human in vitro priming consisting of RPMI-Glutamax (Invitrogen, Karlsruhe, Germany) supplemented with 10% heat inactivated human AB serum (PAA, Cölbe, Germany), 100 U/ml Penicillin/100 μg/ml Streptomycin (Cambrex, Verviers, Belgium), 1 mM sodium pyruvate (CC Pro, Neustadt, Germany) and 20 μg/ml Gentamycin (Cambrex). CD8+ lymphocytes were isolated using the CD8+ MACS positive selection kit (Miltenyi, Bergisch Gladbach, Germany) according to the manufacturer's instructions.
800.000 beads/200 μl were coated in 96-well plates in the presence of 600 ng biotin anti-CD28 plus 200 ng relevant biotin-pMHC (high density beads) or 2 ng relevant plus 200 ng irrelevant (pMHC library) MHC (low density beads). Stimulations were initiated in 96-well plates by co-incubating 1×10^6 CD8+ T cells with 2×10^5 washed coated beads in 200 μl TCM supplemented with 5 ng/ml IL-12 (PromoCell) for 3-4 days at 37° C. Half of the medium was then exchanged by fresh TCM supplemented with 80 U/ml IL-2 and incubating was continued for 3-4 days at 37° C. This stimulation cycle was performed for a total of three times.
Results shown have been obtained by stimulation of CD8+ cells with high density beads. As different human serum lots may highly affect the immunogenicity results, only assays in which one and the same serum lot was used, were evaluated together.

CD8+ T cells [2] = assay: as above; assay type: cell-based, human; settings: small number of glioblastoma patients
[3] = out of 18 patients treated, recurrent GBM, intermediate results; cited from earlier work
[4] = tested on: HLA-DR broad antigens (HLA-DR1 to DR7); assay: ProImmune REVEAL MHC:peptide binding assay; parameters: species or system human; settings: relative to pass/fail control; MET-005 tested as two overlapping 15-mers
Experimental: The ProImmune REVEAL™ technology employs in vitro HLA-DR assembly assays to determine the on-rates for the MHC:peptide complex as one major determinant of the binding constant of individual peptides. The assay was performed by ProImmune (Oxford, UK). At a fixed time point, the amount of intact MHC:peptide complexes is measured and compared with the amount for a pass/fail control (relative weak binder). A strong, promiscuous HLA-DR binder is included as positive control. Values indicate amount of binding for the individual peptides and HLA-DR molecules relative to the pass/fail control.
In this assay, binding was compared to that of a pass/fail control binder, and to a positive control peptide for each HLA-DR antigen.

anti-survivin T cells = assay: Phase I/II vaccination study, T-cell response to Survivin peptide (IFN-g ELISPOT, +/-ICS); assay type: in vivo, human

Molecule | Positive donors/donors tested (CD8+ T cells [1]) [%] | Positive wells/wells tested (CD8+ T cells [1]) [%] | other results
CSCC[C@H](NC(=O)[C@@H](N)[C@@H](C)O)C(=O)N[C@@H](CC(C)C)C(=O)N[C@@H](C)C(=O)N[C@@H](CCCNC(=N)N)C(=O)N[C@@H](CC(C)C)C(=O)N[C@@H](C)C(=O)N[C@@H](CO)C(=O)N[C@@H](C)C(=O)O [CSP-001] | 100 | 57 | Kd (HLA-A*0201; recombinant HLA-A*0201 with b2m, quantitative ELISA, read-out: Dissociation constant (KD) to HLA-A*0201): 2.05 nM
AIIDGVESV (listed as Homo sapiens) [PTP-003] | 50 | 17 | 
ALWAWPSEL (listed as Homo sapiens) [BCA-002] | 75 | 35 | in vitro immunogenicity in glioblastoma patients (CD8+ T cells [2]): immunogenic to a similar extent compared with healthy donors; immunogenicity in comparison to another BCAN-derived peptide (IMA-BCA-001) (CD8+ T cells [1]): very immunogenic
AMG102: human neutralizing antibody against HGF |  |  | patients with minor response [3]: 1; patients with partial response [3]: 1
AMTQLLAGV (listed as Homo sapiens) [TNC-001] | 60 | 30 | 
GLWHHQTEV (listed as Homo sapiens) [NRCAM-001] | 86 | 39 | 
KIQEILTQV (listed as Homo sapiens) [IGF2BP3-001] | 50 | 21 | 
KVFAGIPTV (listed as Homo sapiens) [PTP-005] | 100 | 52 | 
LTFGDVVAV (listed as Homo sapiens) [FABP7-001] | 100 | 27 | 
NLDTLMTYV (listed as Homo sapiens) [NLGN4X-001] | 100 | 62 | in vitro immunogenicity in glioblastoma patients (CD8+ T cells [2]): immunogenic to a similar extent compared with healthy donors
SLWAGVVVL (listed as Homo sapiens) [CHI-001] | 100 | 63 | in vitro immunogenicity in glioblastoma patients (CD8+ T cells [2]): immunogenic to a similar extent compared with healthy donors
TFSYVDPVITSISPKYG (listed as Homo sapiens) [MET-005, MET-derived elongated HLA class I TUMAP] |  |  | HLA-DR antigens for which in vitro binding was obtained [4]: HLA-DR11; HLA class I binding of the full-length elongated peptide (HLA-A*0201): does not possess HLA class I binding capacities
TLGEFLKLDRERAKN (listed as Homo sapiens) [BIR-002] |  |  | HLA-DR antigens for which in vitro binding was obtained [4]: HLA-DR1, 3, 4 and 11; patients with induction of an anti-survivin T-cell response upon vaccination (anti-survivin T cells; among the 16 reacting patients): 12; patients with pre existing anti-Survivin T cells (anti-survivin T cells; among the 16 reacting patients): 2; immunogenicity in clinical trial in prostate cancer patients with different HLA-DR alleles (anti-survivin T cells; in vivo): broad immunogenicity; patients who reacted to the peptide (IFN-g ELISPOT, +/-ICS) (anti-survivin T cells; of the 19 patients vaccinated, prostate carcinoma): 16
YVDPVITSI [MET-001] | 67 | 39 | 
